“And” between values parts separate entries of the source, which are not always exact repeats. Equal values may be shown once.
Tests used:
[1] = system: superoxide production in organotypic slice cultures (CA1 pyramidal cell layer); assay: Superoxide production monitored fluorescently with hydroethidine (HEt); format: cell-based, Wistar rat; conditions: 10 μM AMPA alone
Procedure: Hydroethidine (HEt) has been utilised to fluorescently monitor the production of superoxide in primary neuronal cultures [Bindokas et al., (1996), Carriedo et al. (1998)]. A stock solution of HEt was made was made in N2 sparged DMSO (10 mg ml^−1) which was then aliquoted and stored at −80° C. aliquots were used only once before being discarded. Two separate experimental paradigms were employed to test the effect of L-Arg3,4 on superoxide production in response to either AMPA or NMDA stimulation.
For the AMA experiments, organotypic slice cultures were loaded with 1 μg ml^−1 HEt in HEPES buffered salt solution (HSS) (in mM): glucose 10, NaCl 144, KCl 5, HEPES 10, MgCl2 1, CaCl2 2, pH 7.4, for 30 minutes in the dark. All subsequent solutions contained HEt to prevent a decrease in signal due to reporter depletion. Images were acquired once per minute for the duration of the experiment on the same system as described above for assessment of cell death. A 10 minute record of baseline superoxide production was produced before the bathing solution was exchanged for HBSS+BEt containing 10 μM AMPA, again for 10 minutes. As shown previously, stimulation of glutamate receptors with AMPA lead to an increase in superoxide production [Bindokas et al., (1996), Carriedo et al. (1998)]. The bathing solution was then exchanged for HBSS+HEt containing both 10 μM AMPA and 300 μM L-Arg3,4 for 10 minutes to test the effect of L-Arg3,4 on superoxide production. In separate control experiments, 300 μM L-Arg3,4 in HSS was incubated with slices to determine if it affected baseline superoxide production on its own.
Acquired images from the AMPA experiments were then analysed with the OpenLab image analysis package. A region of interest was drawn around the CA1 pyramidal cell layer because this was the cell layer that produced the largest increase in fluorescence in response to AMPA activation. In each image, within the region of interest, the average pixel value was calculated in arbitrary units (AU) to produce a record of fluorescence intensity values over time. A linear regression was then performed on the data to calculate the rate of superoxide production as change in intensity over time (arbitrary units per minute, AU min^−1) for each of the treatments. Data is presented as mean±s.d. Rates of superoxide production were then compared by ANOVA followed by post-hoc comparisons with Bonferroni corrections with significance indicated as * for P<0.05 and ** for P<0.01.

[2] = system: acute hippocampal slices (CA1 pyramidal cell layer, Schaffer collateral stimulation); assay: Electrophysiology: evoked field responses / synaptic transmission; design: species or system Sprague-Dawley rats
Text: All animal procedures to produce acute hippocampal slices were approved by the Home Office. Male, 250 g, Sprague-Dawley rats were deeply anaesthetised with halothane and decapitated. The brain was quickly removed, and the hippocampi dissected out and then cut into 300 μm thick transverse slices on a vibratome (Leica, Milton Keynes, UK) in cold cutting solution (in mM: 189 sucrose, 2.5 KCl, 26 NaHCO3, 1.2 NaH2PO4, 10 glucose, 5 MgCl2, 0.1 CaCl2) equilibrated with 5% CO2, 95% O2. Slices were transferred to aCSF (in mM: 10 glucose, 125 NaCl, 5 KCl, 26 NaHCO3, 1 MgCl2, 1.25 NaH2PO4, 2 CaCl2, 10 sucrose) at room temperature, bubbled with 5% CO2 and 95% O2, for at least 1 h before use.
Slices were then transferred to a submerged perfusion chamber (2 ml volume) for the electrophysiological recordings and were perfused at 10 ml min^−1 at 25° C. with aCSF equilibrated with 5% CO2 and 95% O2, and allowed to equilibrate for 1 h before manipulations were started. Experimental compounds were applied by bath perfusion. L-Arg3,4 was applied at 300 μM and DNQX was applied at 10 μM final concentration. DNQX was diluted from a 40 mM stock in DMSO (final DMSO of 0.025%). The Schaffer collaterals of CA3 were stimulated at voltages from 0 to 30 V with a constant voltage stimulator (Digitimer, Hertfordshire, UK) via a twisted pair stimulating electrode of polyimide coated stainless steel wire (Plastics One, Roanoke, Va.). Field potential responses were recorded with an Axopatch 200B amplifier (Axon Instruments, Foster City, Calif.) in the fast current clamp mode via a 2M KCl filled glass electrode (2-5 MQ) in the CA1 pyramidal cell layer. Responses were filtered at 2 kHz, digitised at 20 kHz with a Digidata 1320A (Axon Instruments), and stored onto hard disk with Clampex 8.1 software (Axon Instruments) running on a Dell Pentium III PC. Data was analysed in Clampfit 8.1 (Axon Instruments).
Stimulus-response (S/R) curves were generated from stimuli from 0 to 30 V in 2 V increments. Bath perfusion of 300 μM L-Arg3,4 in aCSF was applied for 10 min with a sub-maximal stimulus applied every minute to monitor synaptic transmission. A second S/R curve was generated before the perfusion was switched back to plain aCSF. A sub-maximal stimulus was applied every minute during the 15 min wash period after which a third SIR curve was generated. Perfusion of 10 μM DNQX was then started until the response to the sub-maximal stimulus was completely eliminated which always occurred within 10 min. […] In Clampfit, S/R curves were fit to a sigmoidal function of the form: [formula] where R is the magnitude of the evoked response, Rmax is the maximum response, V50 is the voltage which produces a half maximal response, S is the stimulus voltage, and m is proportional to the slope of the linear region of the sigmoid. Data was compared by one way ANOVA.

models of excitotoxicity = conditions: Hartley & Choi 1989; cited from earlier work

Compound: Cc1o[nH]c(=O)c1CC(N)C(=O)O (centres unmarked) [AMPA, reference compound]
- increase of rate of superoxide production over baseline [1]: approximately 5 fold
- rate of superoxide production [1]: 10.65±3.70 AU min-1

Compound: O=c1[nH]c2cc([N+](=O)[O-])c([N+](=O)[O-])cc2[nH]c1=O [DNQX, 6,7-Dinitroquinoxaline-2,3(1H,4H)-dione, reference compound]
- time to complete elimination of response / synaptic transmission ([2]; 10 μM, all slices): ≤ 10 min
- time to elimination of all transmission ([2]; 10 μM, single slice, sub-maximal stimulus): ≤ 5 min
- effect on evoked responses ([2]; bath application, L-Arg3,4 300 μM, DNQX 10 μM): blocked the evoked response completely

Compound: N[C@H](CCCP(=O)(O)O)C(=O)O [D-APV]
- delay of administration at which effectiveness is lost (therapeutic window) (models of excitotoxicity): 30 min

Compound: COc1ccc2c(c1)[C@]13CCCC[C@@H]1[C@H](C2)N(C)CC3 [dextromethorphan]
- delay of administration at which effectiveness is lost (therapeutic window) (models of excitotoxicity): 30 min

Compound: C[C@]12N[C@H](Cc3ccccc31)c1ccccc12 [MK-801]
- delay of administration at which effectiveness is lost (therapeutic window) (models of excitotoxicity): 30 min and 15 min
